Assay results as given in ChEMBL document CHEMBL1201862, “PubChem BioAssay data set” (2004).
Activity calls are given as the source filed them.

Legend:
[1] = target: T1, Beta-2 adrenergic receptor (Homo sapiens, UniProt P07550); assay: Dose response for HTS for Beta-2AR agonists via FAP method from Powderset3.; type: functional
[2] = target: T1, Beta-2 adrenergic receptor; assay: beta2AR agonists driving receptor internalization, dose response, cell-based, FAP fluorogen, flow cytometry, cherry pick 1 (AID 588763); type: functional
[3] = Counterscreen for […] of the human trace amine associated receptor 1 (TAAR1): Fluorescence-based cell-based high throughput dose response assay to identify nonselective Ga16 agonists.; type: functional
[4] = target: T2, Trace amine-associated receptor 1 (Homo sapiens, UniProt Q96RJ0); assay: Fluorescence-based cell-based high throughput dose response assay to identify antagonists of the human trace amine associated receptor 1 (TAAR1).; type: functional
T2 sequence (Q96RJ0 whole entry): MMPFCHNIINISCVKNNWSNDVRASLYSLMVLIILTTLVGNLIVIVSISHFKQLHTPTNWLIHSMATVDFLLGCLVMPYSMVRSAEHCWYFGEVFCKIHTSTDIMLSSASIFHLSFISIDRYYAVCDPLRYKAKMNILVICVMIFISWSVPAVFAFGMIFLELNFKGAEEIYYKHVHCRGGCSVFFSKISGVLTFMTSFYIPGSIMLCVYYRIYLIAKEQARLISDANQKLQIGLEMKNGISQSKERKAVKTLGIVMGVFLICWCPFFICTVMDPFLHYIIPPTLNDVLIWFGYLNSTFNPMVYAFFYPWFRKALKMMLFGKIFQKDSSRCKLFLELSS

[5] = Counterscreen for antagonists of the human trace amine associated receptor 1 (hTAAR1): Fluorescence-based cell-based high throughput dose response assay to identify nonselective Ga16 antagonists.; type: functional
[6] = target: T2, Trace amine-associated receptor 1; assay: Counterscreen for antagonists of the human trace amine associated receptor 1 (hTAAR1): Fluorescence-based cell-based high throughput dose response assay to identify TAAR1 Agonists.; type: functional
[7] = cells; type: functional, cell-based
[8] = target: T2, Trace amine-associated receptor 1; assay: Fluorescence-based cell-based high throughput dose response assay to identify agonists of the human trace amine associated receptor 1 (TAAR1).; type: functional
[9] = cells; type: functional, cell-based; remark: listed apart in the source
[10] = target: T2, Trace amine-associated receptor 1; assay: Counterscreen for agonists of the human trace amine associated receptor 1 (hTAAR1): Fluorescence-based cell-based high throughput dose response assay to identify hTAAR1 agonist that also desensitize TAAR1 receptor response.; type: functional
[11] = CFTR ΔF508 corrector activity in bronchial cells, dose response, human bronchial epithelial cells, plate reader, cherry-pick, two tests (AID 743267); type: functional, cell-based
[12] = target: Beta-lactamase (Pseudomonas aeruginosa, UniProt Q79MP6);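 note: biochemical dose-response test of metallo-beta-lactamase enzyme inhibition, read out by epi-absorbance; purified recombinant IMP-1 metallo-beta-lactamase with nitrocefin as substrate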
[13] = target: Beta Lactamase (Pseudomonas aeruginosa, UniProt Q932Y6);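 note: confirmatory high-throughput screen measuring VIM-2 metallo-beta-lactamase inhibition by epi-absorbance in dose response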
[14] = target: ORF 73 (Human herpesvirus 8, UniProt O40947); assay: inhibitors of C-LANA binding to LBS DNA, dose response, biochemical, fluorescence polarization, cherry-picked samples (AID 504725); parameters: species or system Human gammaherpesvirus 8;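 note: fluorescence polarization of a labeled DNA duplex reporting LANA DNA binding; potency is for inhibitors that block LANA binding to the DNA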
[15] = target: Beta-lactamase (Salmonella choleraesuis (strain SC-B67), UniProt Q5J463)
[16] = target: T3, Tyrosine-protein phosphatase non-receptor type 22 (Homo sapiens, UniProt Q9Y2R2); assay: LYP phosphatase inhibition for selectivity, dose response, selectivity assay for LMPTP inhibitor project, biochemical, fluorescence, LYP catalytic domain (AID 652006); type: functional; settings: read-out: IC50_Mean
T3 sequence (Q9Y2R2 whole entry): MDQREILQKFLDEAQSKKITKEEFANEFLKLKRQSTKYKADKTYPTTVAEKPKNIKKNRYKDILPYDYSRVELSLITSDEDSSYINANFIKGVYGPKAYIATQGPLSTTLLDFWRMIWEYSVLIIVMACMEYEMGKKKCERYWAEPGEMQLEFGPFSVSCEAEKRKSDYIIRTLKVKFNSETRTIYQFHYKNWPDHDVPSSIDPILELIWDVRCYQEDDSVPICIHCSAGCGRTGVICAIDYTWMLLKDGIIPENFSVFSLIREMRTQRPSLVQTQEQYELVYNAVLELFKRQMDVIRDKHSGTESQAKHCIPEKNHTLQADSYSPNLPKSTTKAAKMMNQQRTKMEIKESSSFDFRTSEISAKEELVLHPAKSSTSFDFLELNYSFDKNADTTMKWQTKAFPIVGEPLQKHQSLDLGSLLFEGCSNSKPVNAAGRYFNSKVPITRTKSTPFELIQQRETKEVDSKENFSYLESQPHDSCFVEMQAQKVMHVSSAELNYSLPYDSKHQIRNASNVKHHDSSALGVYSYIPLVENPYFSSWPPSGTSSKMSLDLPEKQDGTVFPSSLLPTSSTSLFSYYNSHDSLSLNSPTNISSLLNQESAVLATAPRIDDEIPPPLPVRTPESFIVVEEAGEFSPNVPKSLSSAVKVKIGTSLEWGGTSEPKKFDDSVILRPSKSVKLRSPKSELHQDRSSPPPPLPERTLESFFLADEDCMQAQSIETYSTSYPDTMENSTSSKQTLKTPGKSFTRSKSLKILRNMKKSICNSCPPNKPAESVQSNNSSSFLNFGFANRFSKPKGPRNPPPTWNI

[17] = target: T4, Low molecular weight phosphotyrosine protein phosphatase (Homo sapiens, UniProt P24666); type: functional; settings: read-out: IC50_Mean;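 note: Dose-response confirmation assay measuring inhibition of LMPTP enzyme activity by fluorescence intensity read-out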
T4 sequence (P24666 whole entry): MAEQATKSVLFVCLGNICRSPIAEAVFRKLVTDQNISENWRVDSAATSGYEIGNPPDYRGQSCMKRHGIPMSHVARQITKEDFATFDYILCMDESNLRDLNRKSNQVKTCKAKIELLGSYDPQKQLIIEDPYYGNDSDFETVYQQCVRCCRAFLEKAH

[18] = target: T5, DNA repair protein RAD52 homolog (Homo sapiens, UniProt P43351); type: functional, biochemical
T5 sequence (P43351 whole entry): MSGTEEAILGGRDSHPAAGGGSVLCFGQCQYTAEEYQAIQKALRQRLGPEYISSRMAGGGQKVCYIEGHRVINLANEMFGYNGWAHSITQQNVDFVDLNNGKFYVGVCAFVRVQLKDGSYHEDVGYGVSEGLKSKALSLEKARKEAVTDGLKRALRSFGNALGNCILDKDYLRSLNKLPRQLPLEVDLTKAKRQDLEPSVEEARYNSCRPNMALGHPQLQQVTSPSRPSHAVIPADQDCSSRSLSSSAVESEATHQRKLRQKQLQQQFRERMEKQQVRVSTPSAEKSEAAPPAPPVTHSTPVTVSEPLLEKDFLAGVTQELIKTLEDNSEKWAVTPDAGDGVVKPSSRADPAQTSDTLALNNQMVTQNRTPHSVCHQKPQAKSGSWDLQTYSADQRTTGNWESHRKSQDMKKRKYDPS

[19] = target: Matrix metalloproteinase-14 (Homo sapiens, UniProt P50281); assay: Dose Response confirmation of uHTS hits for a small molecule inhibitors of MT1-MMP activation in a fluorescence assay set 2.; type: functional
[20] = target: Palmitoyl-protein thioesterase ABHD10, mitochondrial (Mus musculus, UniProt Q6PE15); assay: Late stage assay provider results from the probe development effort to identify inhibitors of PME-1: fluorescence-based dose response biochemical gel-based competitive Activity-Based Protein Profiling (ABPP) inhibition of ABHD10 Set 1.; type: functional
[21] = intracellular Trypanosoma cruzi inhibitors in host cells – cell-based, plate reader, cherry-pick samples, set 3, dose response (AID 651818); type: functional;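 note: compounds incubated with infected cells for about four days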
[22] = NIH/3T3 fibroblast cytotoxicity, dose response, cytotoxicity control for T. cruzi growth inhibitor project, cell-based, cherry-pick samples, set 2 (AID 651817); type: functional; settings: NIH3T3
[23] = target: T6, Sentrin-specific protease 8 (Homo sapiens, UniProt Q96LD8); type: functional
T6 sequence (Q96LD8 whole entry): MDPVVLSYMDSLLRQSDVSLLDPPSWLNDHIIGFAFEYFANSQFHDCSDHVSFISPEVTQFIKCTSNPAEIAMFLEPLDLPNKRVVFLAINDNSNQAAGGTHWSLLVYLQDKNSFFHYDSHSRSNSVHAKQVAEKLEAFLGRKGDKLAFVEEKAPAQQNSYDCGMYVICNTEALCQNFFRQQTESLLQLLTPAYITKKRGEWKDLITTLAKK

[24] = target: T6, Sentrin-specific protease 8; type: functional; remark: listed apart in the source
[25] = HEK293 cell viability, dose response, counter-screen for EBV LMP1 inhibitor project, dry powder, set 2 (AID 624374); type: functional

T1 sequence (P07550 whole entry): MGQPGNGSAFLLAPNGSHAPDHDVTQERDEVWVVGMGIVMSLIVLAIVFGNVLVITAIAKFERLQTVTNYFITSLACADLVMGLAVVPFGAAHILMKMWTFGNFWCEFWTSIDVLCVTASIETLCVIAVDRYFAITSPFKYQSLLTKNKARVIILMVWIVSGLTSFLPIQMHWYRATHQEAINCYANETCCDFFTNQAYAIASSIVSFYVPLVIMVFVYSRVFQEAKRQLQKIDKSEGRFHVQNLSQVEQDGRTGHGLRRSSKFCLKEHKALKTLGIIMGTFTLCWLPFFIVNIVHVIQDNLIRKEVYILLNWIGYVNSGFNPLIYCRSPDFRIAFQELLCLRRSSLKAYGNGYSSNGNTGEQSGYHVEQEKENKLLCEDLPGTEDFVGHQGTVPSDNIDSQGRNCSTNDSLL
Sequence of Beta Lactamase (Q932Y6 whole entry): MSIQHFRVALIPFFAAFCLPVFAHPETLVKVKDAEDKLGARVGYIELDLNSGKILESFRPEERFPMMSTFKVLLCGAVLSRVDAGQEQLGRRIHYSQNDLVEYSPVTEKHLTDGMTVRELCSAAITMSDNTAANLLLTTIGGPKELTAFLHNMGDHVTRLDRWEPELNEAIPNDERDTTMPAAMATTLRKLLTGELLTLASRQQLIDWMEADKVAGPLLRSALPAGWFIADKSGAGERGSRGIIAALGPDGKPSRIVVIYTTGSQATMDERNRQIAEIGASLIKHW
Sequence of Palmitoyl-protein thioesterase ABHD10, mitochondrial (Q6PE15 whole entry): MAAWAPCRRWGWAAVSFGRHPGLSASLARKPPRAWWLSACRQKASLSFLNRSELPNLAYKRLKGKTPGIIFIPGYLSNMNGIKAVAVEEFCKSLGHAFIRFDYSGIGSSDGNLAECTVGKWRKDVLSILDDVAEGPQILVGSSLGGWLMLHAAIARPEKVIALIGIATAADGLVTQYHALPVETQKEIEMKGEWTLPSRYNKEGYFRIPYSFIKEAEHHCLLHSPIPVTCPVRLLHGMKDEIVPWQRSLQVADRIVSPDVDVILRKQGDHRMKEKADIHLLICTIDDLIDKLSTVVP
Sequence of Beta-lactamase (Salmonella choleraesuis (strain SC-B67), UniProt Q5J463) (Q5J463 whole entry, the tested form may be a part): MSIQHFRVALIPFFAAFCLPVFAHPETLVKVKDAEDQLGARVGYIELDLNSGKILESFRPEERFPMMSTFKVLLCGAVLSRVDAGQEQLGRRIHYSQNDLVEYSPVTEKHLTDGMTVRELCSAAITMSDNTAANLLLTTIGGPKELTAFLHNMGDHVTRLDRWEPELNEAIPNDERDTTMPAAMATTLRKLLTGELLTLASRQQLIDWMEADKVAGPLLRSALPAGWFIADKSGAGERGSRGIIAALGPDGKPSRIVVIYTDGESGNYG
Sequence of Beta-lactamase (Pseudomonas aeruginosa, UniProt Q79MP6) (Q79MP6 whole entry): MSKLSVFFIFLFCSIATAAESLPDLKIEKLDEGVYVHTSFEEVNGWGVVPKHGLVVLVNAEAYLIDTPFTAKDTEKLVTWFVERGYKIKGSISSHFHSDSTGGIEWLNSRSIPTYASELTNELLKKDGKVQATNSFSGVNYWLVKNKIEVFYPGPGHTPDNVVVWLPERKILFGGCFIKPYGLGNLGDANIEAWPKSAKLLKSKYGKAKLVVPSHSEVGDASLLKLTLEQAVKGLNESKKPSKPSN
Sequence of ORF 73 (O40947 whole entry): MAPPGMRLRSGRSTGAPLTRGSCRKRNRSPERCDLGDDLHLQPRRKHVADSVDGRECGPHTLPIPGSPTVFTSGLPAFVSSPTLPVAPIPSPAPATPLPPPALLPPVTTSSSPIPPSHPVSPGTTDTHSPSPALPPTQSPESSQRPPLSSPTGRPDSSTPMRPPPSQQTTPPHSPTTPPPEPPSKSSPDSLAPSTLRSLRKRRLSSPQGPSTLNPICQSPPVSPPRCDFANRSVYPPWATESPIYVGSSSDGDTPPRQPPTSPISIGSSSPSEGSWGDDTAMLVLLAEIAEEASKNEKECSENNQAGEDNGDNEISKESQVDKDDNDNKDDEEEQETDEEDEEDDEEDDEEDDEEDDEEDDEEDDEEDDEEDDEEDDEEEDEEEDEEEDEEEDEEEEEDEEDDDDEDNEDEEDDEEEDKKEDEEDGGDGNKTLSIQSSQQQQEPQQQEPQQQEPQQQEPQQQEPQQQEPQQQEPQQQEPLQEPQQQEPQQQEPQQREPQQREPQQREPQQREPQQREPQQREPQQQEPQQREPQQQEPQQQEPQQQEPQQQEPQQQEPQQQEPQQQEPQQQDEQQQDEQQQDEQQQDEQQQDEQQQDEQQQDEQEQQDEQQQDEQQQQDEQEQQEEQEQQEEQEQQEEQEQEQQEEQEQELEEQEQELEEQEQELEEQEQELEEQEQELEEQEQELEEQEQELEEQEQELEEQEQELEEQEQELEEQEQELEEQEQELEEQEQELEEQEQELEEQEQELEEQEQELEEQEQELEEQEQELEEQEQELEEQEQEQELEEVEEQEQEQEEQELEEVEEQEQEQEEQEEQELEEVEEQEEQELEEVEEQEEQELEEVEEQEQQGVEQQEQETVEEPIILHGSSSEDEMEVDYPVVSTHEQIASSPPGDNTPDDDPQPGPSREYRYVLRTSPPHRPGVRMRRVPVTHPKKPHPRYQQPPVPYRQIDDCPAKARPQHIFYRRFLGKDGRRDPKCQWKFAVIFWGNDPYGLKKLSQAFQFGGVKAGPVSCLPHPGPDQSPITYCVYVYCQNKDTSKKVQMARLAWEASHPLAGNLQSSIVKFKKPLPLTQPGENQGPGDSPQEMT

CC(Sc1nc(-c2ccccc2)cc(C(F)(F)F)n1)C(=O)N1CCOCC1 (stereo not given)
EC50 [1]: 0.0143 µM (active)
EC50 [2]: 0.0435 µM (active)

O=C(Nc1cccnc1)c1ccc(COc2ccccc2Br)cc1
EC50 [3]: > 29.9 µM (inactive)
IC50 [4]: 4.17 µM (active)
IC50 [5]: > 29.9 µM (inactive)
EC50 [6]: > 29.9 µM (inactive)

O=C(NCCc1ccccc1)C(=O)NCC1OCCN1S(=O)(=O)c1ccc2c(c1)OCCO2 (stereo not given)
EC50 [7]: > 29.9 µM (inactive)
EC50 [8]: 5.13 µM (active)
IC50 [9]: > 29.9 µM (inactive)
IC50 [10]: 8.98 µM (active)

COc1cc(/C=C(\CC(=O)O)c2nc3ccccc3s2)ccc1OCC(=O)Nc1ccccc1F
AC50 [11]: 58.5 µM (active)

CN(C)c1ccc(/C=N/N(CCO)C2=NS(=O)(=O)c3ccccc32)cc1
IC50 [12]: 8.93 µM (active)
IC50 [13]: 9.4 µM (active)
AC50 [14]: 1 µM (active)
IC50 [15]: 6.94 µM (active)

CN1/C(=C/C=C/c2n(C)c3cc([N+](=O)[O-])c([N+](=O)[O-])cc3[n+]2C)C(C)(C)c2ccccc21
IC50 [16]: 42.2 µM (inactive)
IC50 [17]: 20.1 µM (inactive)
AC50 [18]: 18.4 µM (active)
IC50 [19]: 6.17 µM (active)

CC[C@@]1(c2ccccc2)C(=O)N(C(=O)OC(C)C)N1C(=O)OC(C)C
IC50 [20]: 0.13 µM (active)

C[C@H](CO)N1C[C@H](C)[C@@H](CN(C)Cc2ccc(Cl)c(Cl)c2)Oc2c(NC(=O)Nc3ccc(C(F)(F)F)cc3)cccc2C1=O
AC50 [21]: 3.08 µM (active)
AC50 [22]: 10.2 µM (active)

Nc1cc(N)cc(C(=O)c2ccccc2)c1
IC50 [23]: 13.8 µM (active)
IC50 [24]: 10.4 µM (active)

COC(=O)C[C@H]1C[C@H]2c3cc(NC(=O)CN(C)C)ccc3O[C@H]2[C@H](CO)O1
AbsAC35 [25]: 110.27 µM
